{"source": "patent US11135187B2", "about": "“Compositions and methods for treating diabetic retinopathy” (Augusta University Research Institute, Inc., priority 2017, dated 2021)", "key": {"[1]": {"test_system": "albumin", "experiment": "intravitreal Ang II-induced retinal albumin leakage in diabetic mice", "type": "in vivo", "conditions": "for intravitreal Ang II-induced retinal albumin leakage in diabetic mice: 11,12-EET 15 μg/kg/day s.c., MS-PPOH 20 mg/kg/day i.p.", "procedure": "(§1) One week after mice developed diabetes, diabetic and control mice were assigned to the following groups: Ang II (intravitreal injection with 5 μg/1 μL of Ang II); diabetes+Ang II; diabetes+Ang II+11,12-EET (15 μg/kg/day, s.c.; Alzet); diabetes+Ang II+MS-PPOH (CAS No. 206052-02-0-(N-methylsulfonyl-6-(2-propargyloxyphenyl)hexanamide, a selective EETs blocker; 20 mg/kg/day, i.p); and control. 11,12-EET was used because it potentiates intravitreal Ang II-induced retinal damage (FIGS. 4A-4C); also, MS-PPOH was used in a previous study (Huang, H., Exp Biol Med (Maywood), 231:1744-1752 (2006))."}, "[2]": {"test_system": "GLUT-1", "experiment": "GLUT-1 expression in HRECs under HG and hypoxia", "type": "cell-based, human", "conditions": "HG (25 mM D-Glucose) + CO (CoCl2 hypoxia)", "procedure": "(§2) The expression of albumin, ICAM-1, IL-6, GADPH, GLUT-1, and sEH was analyzed by homogenization of tissues or cells. Samples from mice in different treatments as well as human retinal endothelial cells (HRECs) were separated by electrophoresis for 3 h. The proteins were transferred to an enhanced chemiluminescence (ECL) membrane in a transfer buffer. The membranes were blocked for 90 min with 5% nonfat dry milk in Tris-buffered saline. The membranes were incubated with antibody against albumin (1:5000; Bethyl), ICAM-1 (1:2000; Cell Signaling), IL-6 (1:2000; Santa Cruz), GADPH (1:2000; abeam), GLUT-1 (1:10,000; abeam), or sEH (1:500; Santa. Cruz). The membranes were incubated with secondary antibody for albumin, ICAM-1, IL-6, GADPH, GLUT-1, or sEH. Chemiluminescent detection using ECL reagent from Millipore Corporation was done on X-ray film. In addition, quantification of the expression levels of these proteins was analyzed with NIH image J software.\nMethods and Materials HRECs were subjected to L-glucose (osmotic control), L-Glu+hypoxia (CoCl2, 5 μM; CO), HG (25 mM of D-Glucose), or HG+CO."}, "[3]": {"test_system": "albumin", "experiment": "intravitreal hVEGF-induced retinal albumin leakage", "type": "in vivo", "conditions": "11,12-EET 15 μg/kg/day s.c. one week; sEH KO vs sEH (+/+) mice", "procedure": "sEH (−/−) and sEH (+/+) mice were treated with 11, 12-EET (15 μg/kg/day, s.c.; Alzet) or a vehicle for one week, then injected with hVEGF."}, "[4]": {"test_system": "albumin", "experiment": "intravitreal Ang II-induced retinal albumin leakage", "type": "in vivo, mice", "conditions": "for intravitreal Ang II-induced retinal albumin leakage: EET 15 μg/kg/day s.c., Ang II intravitreal on day 3, leakage significant only with 11,12-EET", "procedure": "B6 Mice were injected mice with Ang II (1 or 5 μg per eye) or vehicle assayed for albumin leakage. The expression of albumin was used as the index of leakage assay. Mice were treated with 11, 12-EET (15 μg/kg/day, s.c.; Alzet: Cayman), 14,15-EET (15 μg/kg/day, s.c.; Alzet; Cayman), or vehicle. 11,12-EET and 14,15-EET were used because they are the major products of cytochrome P450 (CYP) epoxygenases. On day 3 after treatment, mice were intravitreally injected with Ang II (5 μg/μl)."}, "[5]": {"experiment": "blood glucose levels in diabetic mice", "type": "in vivo", "conditions": "diabetic mice + Ang II; vs. 483±122 without treatment; not affected", "procedure": "as §1"}, "[6]": {"conditions": "EUCLID trial, 530 participants, after two years of treatment; cited from earlier work"}, "[7]": {"conditions": "DIRECT trial, oral treatment; cited from earlier work"}, "[8]": {"test_system": "sEH", "experiment": "Western blot of sEH protein in tissues of Ang II-infused mice", "type": "in vivo", "procedure": "as §2, with “Eight-week-old male B6 mice were treated for 4 weeks with Ang II (3 mg/kg/day, s.c.; […]; Cayman), Ang II (Sigma), or vehicle. […]. The expression” for “The expression”\nMale mice were treated for 4 weeks with Ang II (3 mg/kg/day, s.c.; Alzet)+telmisartan, a selective AT1 antagonist (2.5 mg/kg/day in drinking water; Cayman), Ang II, or vehicle.\nas §2, with “abcam),” for “abeam),”, “Santa” for “Santa.”"}, "[9]": {"test_system": "albumin", "experiment": "Western blot of total retinal albumin in Ang II-infused mice (retinal permeability)", "type": "in vivo", "conditions": "Ang II 3 mg/kg/day s.c., 4 weeks, vs vehicle", "experimental": "The expression of albumin, ICAM-1 IL-6, GADPH, GLUT-1, and sEH was analyzed by homogenization of tissues or cells. Samples from mice in different treatments as well as human retinal endothelial cells (HRECs) were separated by electrophoresis for 3 h. The proteins were transferred to an enhanced chemiluminescence (ECL) membrane in a transfer buffer. The membranes were blocked for 90 min with 5% nonfat dry milk in Tris-buffered saline. The membranes were incubated with antibody against albumin (1:5000; Bethyl), ICAM-1 (1:2000; Cell Signaling), IL-6 (1:2000; Santa Cruz), GADPH (1:2000; abcam), GLUT-1 (1:10,000; abcam), or sEH (1:500; Santa Cruz). The membranes were incubated with secondary antibody for albumin, ICAM-1, IL-6, GADPH, GLUT-1, or sEH. Chemiluminescent detection using ECL reagent from Millipore Corporation was done on X-ray film. In addition, quantification of the expression levels of these proteins was analyzed with NIH image J software."}, "[10]": {"experiment": "blood pressure in Ang II-induced hypertension", "type": "in vivo, mice", "conditions": "Ang II 3 mg/kg/day s.c., 4 weeks, vs vehicle"}}, "data": [{"compound": "CCCCC/C=C\\C[C@H]1O[C@H]1C/C=C\\C/C=C\\CCCC(=O)O", "note": "[11,12-EET]", "values": [{"measurement": "intravitreal Ang II-induced retinal albumin leakage in diabetic mice", "setting": "[1]", "result": "increased"}, {"measurement": "GLUT-1 expression in HRECs", "setting": "[2]", "result": "promoted GLUT-1 expression"}, {"measurement": "effects of 11,12-EET on intravitreal hVEGF-induced retinal vascular leakage", "setting": "[3]", "result": "potentiated"}, {"measurement": "intravitreal Ang II-induced retinal albumin leakage", "setting": "[4]", "result": "promoted"}, {"measurement": "potency in potentiating intravitreal Ang II-induced retinal damage", "setting": "[4]; comparison of the two EETs", "result": "more potent than 14,15-EET"}, {"measurement": "blood glucose levels", "setting": "[5]", "result": "528 ± 53", "unit": "mg/dL"}]}, {"compound": "CCCCCC1OC1C/C=C\\C/C=C\\C/C=C\\CCCC(=O)O", "note": "(stereo not shown) [14,15-EET]", "values": [{"measurement": "GLUT-1 expression in HRECs", "setting": "[2]", "result": "promoted GLUT-1 expression"}, {"measurement": "intravitreal Ang II-induced retinal albumin leakage", "setting": "[4]", "result": "promoted"}]}, {"compound": "NCCCC[C@H](N[C@@H](CCc1ccccc1)C(=O)O)C(=O)N1CCC[C@H]1C(=O)O", "note": "[Lisinopril]", "values": [{"measurement": "reduction of progression of DR", "setting": "[6]", "result": 50, "unit": "%"}, {"measurement": "reduction of progression to proliferative DR", "setting": "[6]", "result": 80, "unit": "%"}]}, {"compound": "C#CCOc1ccccc1CCCCCC(=O)NS(C)(=O)=O", "note": "[MS-PPOH, N-methylsulfonyl-6-(2-propargyloxyphenyl)hexanamide]", "values": [{"measurement": "intravitreal Ang II-induced retinal albumin leakage in diabetic mice", "setting": "[1]", "result": "decreased"}, {"measurement": "blood glucose levels", "setting": "[5]", "result": "502 ± 57", "unit": "mg/dL"}]}, {"compound": "CCOc1nc2cccc(C(=O)O)c2n1Cc1ccc(-c2ccccc2-c2nnn[nH]2)cc1", "note": "[candesartan]", "values": [{"measurement": "incidence of diabetic retinopathy", "setting": "[7]", "result": "decreased the incidence of diabetic retinopathy"}, {"measurement": "progression of established diabetic retinopathy", "setting": "[7]", "result": "did not reduce the progression of established diabetic retinopathy"}]}, {"compound": "CCCc1nc2c(C)cc(-c3nc4ccccc4n3C)cc2n1Cc1ccc(-c2ccccc2C(=O)O)cc1", "note": "[telmisartan]", "values": [{"measurement": "Ang II-induced sEH expression in the heart", "setting": "[8]; heart, Ang II + telmisartan 2.5 mg/kg/day in drinking water, 4 weeks", "result": "attenuated"}, {"measurement": "Ang II-induced sEH expression in the kidney", "setting": "[8]; kidney, Ang II + telmisartan 2.5 mg/kg/day in drinking water, 4 weeks", "result": "attenuated"}, {"measurement": "Ang II-induced retinal expression of sEH", "setting": "[8]; retina, Ang II + telmisartan 2.5 mg/kg/day in drinking water, 4 weeks", "result": "reversed"}]}, {"compound": "Ang II: angiotensin II, produced from Ang I by angiotensin-converting enzyme (DRVYIHPF; Angiotensin-2; UniProt P01019 25-32, looked up)", "values": [{"measurement": "total retinal albumin", "setting": "[9]", "result": "did not affect total retinal albumin"}, {"measurement": "albumin leakage (blood retinal barrier disruption) in diabetes", "setting": "[1]; intravitreal Ang II 5 μg/1 μL, diabetic mice", "result": "significant increases in albumin leakage"}, {"measurement": "retinal sEH protein levels, elevation vs vehicle group", "setting": "[8]; retina, Ang II 3 mg/kg/day s.c., 4 weeks", "result": 2, "unit": "fold"}, {"measurement": "retinal expression of sEH", "setting": "[8]; retina, Ang II infusion 3 mg/kg/day s.c., 4 weeks (Example 4)", "result": "increased"}, {"measurement": "blood pressure", "setting": "[10]", "result": "became hypertensive"}]}]}
